Data set [1] can be described thus: excess molar enthalpy (molar enthalpy of mixing); xn = mol fraction of the nth substance listed. As to conditions: 363.15 K, Liquid, Flow calorimetry.
Data set [2] in a line: activity coefficient (dimensionless); of the first substance listed, at infinite dilution; xn = mol fraction of the nth substance listed. As to conditions: 101 kPa, Liquid, x1 = 0.
Data set [3] can be described thus: activity coefficient (dimensionless); of the first substance listed, at infinite dilution; wn = mass fraction of the nth substance listed. As to conditions: 101 kPa, Liquid, dilutor technique, w1 = 0.

± gives the expanded uncertainty stated by the source.

The text below walks through data of the NIST ThermoML archive (doi:10.1016/j.fluid.2008.03.011).

Regarding `CCCCCC[n+]1ccn(C)c1.O=S(=O)([N-]S(=O)(=O)C(F)(F)F)C(F)(F)F` + CC1CCCCC1, the excess molar enthalpy stood at 0.0459 ± 0.00191 kcal/mol in data set [1] (1617 kPa, x2 = 0.0612); 0.092 ± 0.00382 kcal/mol in data set [1] (1617 kPa, x2 = 0.118); 0.132 ± 0.0055 kcal/mol in data set [1] (1617 kPa, x2 = 0.1708); 0.166 ± 0.00669 kcal/mol in data set [1] (1617 kPa, x2 = 0.2202); 0.176 ± 0.00717 kcal/mol in data set [1] (1617 kPa, x2 = 0.2663); 0.173 ± 0.00693 kcal/mol in data set [1] (1617 kPa, x2 = 0.3096). Further, the excess molar enthalpy was 0.154 ± 0.00621 kcal/mol in data set [1] (1617 kPa, x2 = 0.3885); 0.136 ± 0.0055 kcal/mol in data set [1] (1617 kPa, x2 = 0.4586); 0.12 ± 0.00502 kcal/mol in data set [1] (1617 kPa, x2 = 0.5213); 0.0943 ± 0.00382 kcal/mol in data set [1] (1617 kPa, x2 = 0.6288); 0.0722 ± 0.00287 kcal/mol in data set [1] (1617 kPa, x2 = 0.7176); 0.0525 ± 0.00217 kcal/mol in data set [1] (1617 kPa, x2 = 0.7922). The excess molar enthalpy in data set [1] (1617 kPa, x2 = 0.884) worked out at 0.0269 ± 0.00112 kcal/mol.
On to `CCCCCC[n+]1ccn(C)c1.O=S(=O)([N-]S(=O)(=O)C(F)(F)F)C(F)(F)F` + CCCCCCCC, for which the excess molar enthalpy in data set [1] (1548 kPa, x2 = 0.0486) is 0.0487 ± 0.00201 kcal/mol; in data set [1] (1548 kPa, x2 = 0.095), 0.0882 ± 0.00359 kcal/mol; in data set [1] (1548 kPa, x2 = 0.1392), 0.108 ± 0.0043 kcal/mol; in data set [1] (1548 kPa, x2 = 0.1814) it was 0.116 ± 0.00478 kcal/mol; in data set [1] (1548 kPa, x2 = 0.2217) it was 0.111 ± 0.00454 kcal/mol; in data set [1] (1548 kPa, x2 = 0.2603) it was 0.106 ± 0.0043 kcal/mol. Further, the excess molar enthalpy turned out to be 0.0959 ± 0.00382 kcal/mol in data set [1] (1548 kPa, x2 = 0.3327); 0.0877 ± 0.00359 kcal/mol in data set [1] (1548 kPa, x2 = 0.3993); 0.0791 ± 0.00335 kcal/mol in data set [1] (1548 kPa, x2 = 0.4608); 0.0636 ± 0.00263 kcal/mol in data set [1] (1548 kPa, x2 = 0.5707); 0.0483 ± 0.00201 kcal/mol in data set [1] (1548 kPa, x2 = 0.666); 0.0384 ± 0.0016 kcal/mol in data set [1] (1548 kPa, x2 = 0.7495). The excess molar enthalpy in data set [1] (1548 kPa, x2 = 0.8568) amounted to 0.0227 ± 0.000956 kcal/mol.
`CCO` [ethanol] + CCCCCCn1cc[n+](C)c1.O=S(=O)([O-])C(F)(F)F: the activity coefficient in data set [2] (303.15 K, dilutor technique) was 1.05 ± 0.07; in data set [2] (313.15 K, dilutor technique), 1 ± 0.06; in data set [2] (323.15 K, dilutor technique), 0.94 ± 0.06; in data set [2] (333.15 K, dilutor technique), 0.86 ± 0.06.
For `CCO` [ethanol] + CCCC[N+]1(C)CCCC1.O=S(=O)([O-])C(F)(F)F, the activity coefficient came to 0.95 ± 0.06 in data set [2] (313.15 K, dilutor technique); 0.92 ± 0.06 in data set [2] (323.15 K, dilutor technique); 0.88 ± 0.06 in data set [2] (333.15 K, dilutor technique); 0.86 ± 0.06 in data set [2] (343.15 K, dilutor technique).
Turning to `CCO` [ethanol] + CCOS(=O)(=O)[O-].CCn1cc[n+](C)c1, the activity coefficient stood at 0.57 ± 0.05 in data set [2] (323.15 K, dilutor technique); 0.6 ± 0.05 in data set [2] (333.15 K, dilutor technique); 0.65 ± 0.05 in data set [2] (343.15 K, dilutor technique); 0.7 ± 0.05 in data set [2] (353.15 K, dilutor technique).
`CC1CCCCC1` [methylcyclohexane] + CCCCCCCC[N+]1(C)CCCC1.O=S(=O)([N-]S(=O)(=O)C(F)(F)F)C(F)(F)F: the activity coefficient came to 4.59 ± 0.41 in data set [2] (303.15 K, dilutor technique); 4.41 ± 0.39 in data set [2] (313.15 K, dilutor technique); 4.29 ± 0.38 in data set [2] (323.15 K, dilutor technique); 4.18 ± 0.37 in data set [2] (333.15 K, dilutor technique).
For `CC1CCCCC1` [methylcyclohexane] + CCCCCC[n+]1ccn(C)c1.O=S(=O)([N-]S(=O)(=O)C(F)(F)F)C(F)(F)F, the activity coefficient in data set [2] (303.15 K, dilutor technique) was 6.83 ± 0.61; in data set [2] (313.15 K, dilutor technique) it was 6.59 ± 0.59; in data set [2] (323.15 K, dilutor technique) it was 6.3 ± 0.56; in data set [2] (333.15 K, dilutor technique), 6.06 ± 0.54.
As for `CC1CCCCC1` [methylcyclohexane] + CCCCCCn1cc[n+](C)c1.O=S(=O)([O-])C(F)(F)F, the activity coefficient stood at 10.5 ± 0.95 in data set [2] (303.15 K, dilutor technique); 10.2 ± 0.9 in data set [2] (313.15 K, dilutor technique); 9.77 ± 0.88 in data set [2] (323.15 K, dilutor technique); 9.49 ± 0.85 in data set [2] (333.15 K, dilutor technique).
For `Cc1ccccc1` [toluene] + CCCCCCCC[N+]1(C)CCCC1.O=S(=O)([N-]S(=O)(=O)C(F)(F)F)C(F)(F)F, in that order: 0.67 ± 0.05, 0.73 ± 0.05, 0.8 ± 0.05 and 0.86 ± 0.06.
Turning to `Cc1ccccc1` [toluene] + CCCCCC[n+]1ccn(C)c1.O=S(=O)([N-]S(=O)(=O)C(F)(F)F)C(F)(F)F, the activity coefficient in data set [2] (303.15 K, dilutor technique) stood at 0.85 ± 0.06; in data set [2] (313.15 K, dilutor technique), 0.95 ± 0.06; in data set [2] (323.15 K, dilutor technique) it was 1.05 ± 0.07; in data set [2] (333.15 K, dilutor technique), 1.14 ± 0.07.
Take `Cc1ccccc1` [toluene] + CCCCCCn1cc[n+](C)c1.O=S(=O)([O-])C(F)(F)F: the activity coefficient was 1.38 ± 0.09 in data set [2] (303.15 K, Dilutor technique); 1.52 ± 0.1 in data set [2] (313.15 K, Dilutor technique); 1.65 ± 0.12 in data set [2] (323.15 K, Dilutor technique); 1.75 ± 0.12 in data set [2] (333.15 K, Dilutor technique).
Turning to `O` [water] + CCCCCCn1cc[n+](C)c1.O=S(=O)([O-])C(F)(F)F, the activity coefficient came out at 1.31 ± 0.09 in data set [3] (303.15 K), 1.04 ± 0.06 in data set [3] (313.15 K), 0.82 ± 0.05 in data set [3] (323.15 K) and 0.64 ± 0.05 in data set [3] (333.15 K).
As for `O` [water] + CCCC[N+]1(C)CCCC1.O=S(=O)([O-])C(F)(F)F, the activity coefficient in data set [2] (313.15 K, dilutor technique) turned out to be 0.67 ± 0.05; in data set [2] (323.15 K, dilutor technique), 0.56 ± 0.05; in data set [2] (333.15 K, dilutor technique), 0.51 ± 0.04; in data set [2] (343.15 K, dilutor technique), 0.44 ± 0.04.
